Like-named read-outs stand apart in the source and are kept apart here.
Columns and labels:
[1] = Zeta-potential measurement; format: physicochemical
Outline: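 Charge on peptide aggregates was assessed by electrophoretic mobility in 1 mM KCl, converted per Smoluchowski. Prior aggregation: 1 mg/mL, pH 7.4 PBS, 1 d, RT.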

[2] = Turbidity, derived count rate of scattered light; format: physicochemical; conditions: for Count Rate: derived count rate of scattered light (turbidity); for Log10 Count Rate: turbidity, derived count rate of scattered light, data of Figure 2D
[3] = test system: HIV-1 infection of TZM-bl cells; assay: HIV-1 infectivity enhancement assay, β-galactosidase luminescence; format: cell-based; conditions: for Rel-EFC / Log10 Infection Rel EFC: 1.3 µM peptide; for Rel-EFC: infection relative to EF-C (QCKIKQIINMWQ = 1); for Log10 Infection Rel EFC: log10 of infection relative to EF-C; for Log Infectivity: Log10 infection relative to EF-C, TZM-bl cells, asymmetric std dev errors; for Log10 Infection Rel EF-C: HIV-1 infection of TZM-bl cells; for Log10 of Rel to EFC (Feb2021): Log10 of infection relative to EF-C, all peptides of FigS16; for Abs. Inf.: absolute infection signal, HIV-1 on TZM-bl cells, β-galactosidase luminescence; for Log10 Inf. rel. to EF-C: log10 of HIV-1 infection of TZM-bl cells relative to EF-C (EF-C = 0)
[4] = format: physicochemical; set-up: key to Fibril / Fibril Formation / TEM 2cat / Fibril: 1 = fibrils present; 0 non-fibrillar structures; conditions: for Fibril / Fibril Formation: 1 mg/mL, uranyl acetate stain, qualitative
[5] = zeta-potential of peptide, source data of Figure 2C
[6] = zeta-potential of the peptide assemblies, mean, Figure 3A source data
[7] = Fig. S7 panel A (plotted against β-sheet content)
[8] = Log10 of infection rate relative to EF-C, Figure 3A source data
[9] = infection rate relative to EF-C, log10, data of Figure 2D
[10] = infection rate relative to EF-C, log10, source data of Figure 2C
[11] = TEM, 1 = fibrils present, 0 = non-fibrillar
[12] = TEM, 1 = fibrils present, 0 = non-fibrillar structures
[13] = category: fibrils present or non-fibrillar
[14] = zeta potential of peptide assemblies
[15] = Fig. S7 panel B (plotted against CR), rounded to two decimals
[16] = FigS12 panel A, fibril category by TEM

Row | Substance | Zeta-Pot. [1] | Zeta-Potential / mV [1, 5] [mV] | Zeta-Potential / mV [1, 6] [mV] | Count Rate [2] | Log10 Count Rate [2] | Rel-EFC [3] | Log10 Infection Rel EFC [3] | Log Infectivity [3, 7] | Log10 Infection Rel EF-C [3, 8] | Log10 Infection Rel EF-C [3, 9] | Log10 Infection Rel EF-C [3, 10] | Log10 of Rel to EFC (Feb2021) [3] | Abs. Inf. [3] | Log10 Inf. rel. to EF-C [3] | TEM 2cat ([4]; Fig S10 panel D) | Fibril / Fibril Formation ([4]; TEM) | Fibril [4, 11] | Fibril [4, 12] | TEM 2cat [4, 16] | Fibril ([4]; FigS12 panel B, TEM) | also measured
1 | QCKFKFQF | 12.2 | 13.3 | 12.2 | 2669 | 3.426 | 0,77 | -0,12 | -0.1152 | -0.12 | -0.1152 | -0.1152 | -0.12 | 20303.33333 | -0.1152 | 1 | 1 | 1 | 1 |  |  | TEM 2cat [4, 13]: 1
2 | CKFKFQFNMW |  | 17.67 | 18.4 | 4107 | 3.613 | 0,96 | -0,02 | -0.01766 | -0.02 | -0.01766 | -0.01766 | -0.02 |  |  | 1 | 1 | 1 | 1 |  |  | Zeta-Pot. [1, 14]: 18.4; TEM 2cat [4, 13]: 1
3 | KFKFQFNMWQ | 25.4 | 24.38 | 25.4 | 734.6 | 2.866 | 0,76 | -0,12 | -0.1164 | -0.12 | -0.1164 | -0.1164 | -0.12 | 20676.66667 | -0.1164 | 1 | 1 | 1 | 1 |  |  | Log Infectivity [3, 15]: -0.12; Fibril ([4]; Fig S10 panel E): 1; TEM 2cat [4, 13]: 1
4 | KYKGAIIGNIK | -9.14 | -5.205 | -9.14 | 44.1 | 1.644 | 0 | -2,51 | -2.508 | -2.51 | -2.508 | -2.508 |  | 80 | -2.508 | 0 | 0 | 0 | 0 | 0 | 0 | 
5 | KYKYQY |  | -3.008 | -4.2 | 31.53 | 1.499 | 0,01 | -1,99 | -1.9887 | -1.99 | -1.9887 | -1.9887 |  |  |  | 0 | 0 | 0 | 0 | 0 | 0 | Zeta-Pot. [1, 14]: -4.2
6 | KIRGKFEKED | -12.7 | -7.197 | -12.7 | 214.4 | 2.331 | 0,06 | -1,24 | -1.2355 | -1.24 | -1.2355 | -1.2355 |  | 643.3 | -1.2355 | 0 | 0 | 0 | 0 | 0 | 0 | 
7 | KIKIQINMAQ |  | 6.27 | 3.07 | 5859 | 3.768 | 0,21 | -0,67 | -0.6722 | -0.67 | -0.6722 | -0.6722 | -0.67 |  | -0.6722 | 1 | 1 | 1 | 1 |  |  | Zeta-Pot. [1, 14]: 3.07; TEM 2cat [4, 13]: 1
8 | KIKQIINM |  | 18.1 | 16.3 | 2481 | 3.395 | 0,45 | -0,35 | -0.3458 | -0.35 | -0.3458 | -0.3458 | -0.35 |  | -0.3458 | 1 | 1 | 1 | 1 |  |  | Zeta-Pot. [1, 14]: 16.3; Log Infectivity [3, 15]: -0.35; Fibril ([4]; Fig S10 panel E): 1; TEM 2cat [4, 13]: 1
9 | CETMYDKILKNLSRSR | 0.41 | -1.487 | 0.41 | 1099 | 3.041 | 0,02 | -1,72 | -1.716 | -1.72 | -1.716 | -1.716 |  | 363.3 | -1.716 | 0 | 0 | 0 | 0 | 0 | 0 | Log Infectivity [3, 15]: -1.72; Fibril ([4]; Fig S10 panel E): 0
10 | CKFC | -19.89 | -2.077 | -19.89 | 235.1 | 2.371 | 0,01 | -1,96 | -1.959 | -1.96 | -1.959 | -1.959 |  | 240 | -1.959 | 0 | 0 | 0 | 0 | 0 | 0 | Log Infectivity [3, 15]: -1.96; Fibril ([4]; Fig S10 panel E): 0
11 | KWKWQW |  | 3.331 | 7.55 | 1545 | 3.189 | 0,01 | -1,84 | -1.838 | -1.84 | -1.838 | -1.838 |  |  |  | 0 | 0 | 0 | 0 | 0 | 0 | Zeta-Pot. [1, 14]: 7.55
12 | KIKIQINMWQ | 14.87 | 15.7 | 14.87 | 2196 | 3.342 | 0,3 | -0,53 | -0.5276 | -0.53 | -0.5276 | -0.5276 | -0.53 | 6650 | -0.5276 | 1 | 1 | 1 | 1 |  |  | Log Infectivity [3, 15]: -0.53; Fibril ([4]; Fig S10 panel E): 1; TEM 2cat [4, 13]: 1
13 | KIKIQI |  | -2.515 | -5.63 | 108.3 | 2.035 | 0,07 | -1,17 | -1.169 | -1.17 | -1.169 | -1.169 |  |  | -1.169 | 0 | 0 | 0 | 0 | 0 | 0 | Zeta-Pot. [1, 14]: -5.63; Log Infectivity [3, 15]: -1.17; Fibril ([4]; Fig S10 panel E): 0
